Test: Increase in solubility of Compound A in dichloromethane/methanol by addition of metal compound
Assay type: physicochemical
Conditions: solvent dichloromethane/methanol=7/3
Description: Increase in solubility of poorly water-soluble nonpeptidic physiologically active compound by addition of metal compound
An amount of a solvent (dichloromethane/methanol=7/3) which can dissolve 0.1 g of 2-ethoxy-1-[[2′-(1H-tetrazol-5-yl)biphenyl-4-yl]methyl]benzimidazole-7-carboxylic acid (hereinafter, abbreviated as Compound A) is shown in Table 1.

CCOc1nc2cccc(C(=O)O)c2n1Cc1ccc(-c2ccccc2-c2nnn[nH]2)cc1 [Compound A, 2-ethoxy-1-[[2′-(1H-tetrazol-5-yl)biphenyl-4-yl]methyl]benzimidazole-7-carboxylic acid]
Amount of solvent which can dissolve 0.1 g of Compound A (magnesium acetate tetrahydrate 48.7 mg added): 0.5 mL | Amount of solvent which can dissolve 0.1 g of Compound A (no metal compound added): 3 mL | Amount of solvent which can dissolve 0.1 g of Compound A (zinc acetate dihydrate 49.8 mg added): 0.5 mL
